{"source": "patent US20170245495A1", "about": "“CHEMICAL LURE FOR ASIAN CITRUS PSYLLID” (The Regents of the University of California, priority 2014, published 2017)", "origin": "cited, not measured here", "system": "D. citri", "settings": "Mann et al. 2012, Patt and Setamou 2010", "note": "Read-outs that look alike come from different tables or passages of the source.", "data": [{"compound": "C=CC(C)(O)CCC=C(C)C", "note": "(stereo not shown) [linalool]", "values": [{"measurement": "attraction of D. citri (literature)", "result": "attractive to D. citri"}]}, {"compound": "COC(=O)c1ccccc1O", "note": "[methyl salicylate]", "values": [{"measurement": "attraction of D. citri (literature)", "result": "implicated as D. citri attractants"}, {"measurement": "attraction of D. citri (literature)", "setting": "listed as MeSA", "result": "attractant for D. citri"}]}, {"compound": "C=C/C(C)=C/CC=C(C)C", "note": "[β-ocimene, (E)-β-ocimene]", "values": [{"measurement": "attraction of D. citri (literature)", "result": "attractive to D. citri"}]}]}
